For assay [1], the system named is TNFα. Put plainly: Cot Monocyte TNFα Cell Based Assay.
Assay [2] deals with Human Cot (Homo sapiens (Human), UniProt P41279). Put plainly: High Throughput Cot Biochemical Assay. The following applies: Cot HTRF (TR-FRET KinEASE) biochemical assay, 400 μM ATP.
Setting [3] is: read-out: EC50 TNF, LPS-stimulated human monocytes, TNFα TR-FRET.
Where [4] appears, read: Homo sapiens, Monocyte, read-out: EC50 TNF, LPS-stimulated human monocytes, TNFα TR-FRET.

Read-outs that look alike come from different tables or passages of the source.

Sequence of Human Cot (P41279 30-397): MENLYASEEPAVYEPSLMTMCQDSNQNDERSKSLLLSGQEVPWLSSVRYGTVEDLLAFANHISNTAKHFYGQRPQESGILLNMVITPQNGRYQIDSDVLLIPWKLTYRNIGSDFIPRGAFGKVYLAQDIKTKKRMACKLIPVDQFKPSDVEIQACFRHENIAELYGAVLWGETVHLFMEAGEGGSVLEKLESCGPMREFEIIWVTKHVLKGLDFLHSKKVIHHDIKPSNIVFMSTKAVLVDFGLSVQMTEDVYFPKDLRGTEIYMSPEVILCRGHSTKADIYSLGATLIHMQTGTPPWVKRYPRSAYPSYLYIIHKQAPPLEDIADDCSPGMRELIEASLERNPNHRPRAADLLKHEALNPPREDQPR

Take `COc1nccc2c([C@H](Nc3cc(Cl)c4ncc(C#N)c(NCC(C)(C)C)c4c3)c3nnn(C4(C(F)(F)F)CC4)c3F)cccc12` [Example 922, (S)-8-chloro-6-(((5-fluoro-1-(1-(trifluoromethyl)cyclopropyl)-1H-1,2,3-triazol-4-yl)(1-methoxylsoquinolin-5-yl)methyl)amino)-4-(neopentylamino)quinoline-3-carbonitrile]: the EC50 in assay [1] (setting [3]) was 225 nM. The IC50 in assay [2] (read-out: IC50 HTRF) is 11 nM.
The corresponding values for `COc1nccc2c([C@H](Nc3cc(Cl)c4ncc(C#N)c(NCC(C)(C)C)c4c3)c3nnn(C4(C(F)F)CC4)c3F)cccc12` [Example 923, (S)-8-chloro-6-(((1-(1-(difluoromethyl)cyclopropyl)-5-fluoro-1H-1,2,3-triazol-4-yl)(1-methoxylsoquinolin-5-yl)methyl)amino)-4-(neopentylamino)quinoline-3-carbonitrile] are 258 nM and 16 nM.
Consider `COc1nccc2c([C@H](Nc3cc(Cl)c4ncc(C#N)c(NCC(C)(C)C(F)(F)F)c4c3)c3cn(C4(C)CC4)nn3)cccc12` [Example 927, (S)-8-chloro-6-(((1-methoxylsoquinolin-5-yl)(1-(1-methylcyclopropyl)-1H-1,2,3-triazol-4-yl)methyl)amino)-4-((3,3,3-trifluoro-2,2-dimethylpropyl)amino)quinoline-3-carbonitrile], for which the EC50 in assay [1] (setting [3]) was 124 nM. In assay [2] (read-out: IC50 HTRF), the IC50 is 6 nM.
Taken in the same sequence, the figures for `COc1nccc2c([C@H](Nc3cc(Cl)c4ncc(C#N)c(NCC(C)(C)C)c4c3)c3cn(C4(C(F)(F)F)CC4)nn3)cccc12` [Example 929, (S)-8-chloro-6-(((1-methoxylsoquinolin-5-yl)(1-(1-(trifluoromethyl)cyclopropyl)-1H-1,2,3-triazol-4-yl)methyl)amino)-4-(neopentylamino)quinoline-3-carbonitrile] were 157 nM and 11 nM.
With `COc1ccc2c([C@H](Nc3cc(Cl)c4ncc(C#N)c(NCC(C)(C)C)c4c3)c3cn(C4(C(F)(F)F)CC4)nn3)cccc2n1` [Example 930, (S)-8-chloro-6-(((2-methoxyquinolin-5-yl)(1-(1-(trifluoromethyl)cyclopropyl)-1H-1,2,3-triazol-4-yl)methyl)amino)-4-(neopentylamino)quinoline-3-carbonitrile], the EC50 in assay [1] (setting [4]) amounted to 504 nM. For the same molecule, in assay [2] (IC50 HTRF), it took 33 nM to reach half-maximal inhibition (IC50).
Take `COc1nccc2c([C@H](Nc3cc(Cl)c4ncc(C#N)c(NCC(C)(C)C)c4c3)c3cn(C(CF)CF)nn3)cccc12` [Example 933, (S)-8-chloro-6-(((1-(1,3-difluoropropan-2-yl)-1H-1,2,3-triazol-4-yl)(1-methoxylsoquinolin-5-yl)methyl)amino)-4-(neopentylamino)quinoline-3-carbonitrile]: the EC50 in assay [1] (setting [3]) was 247 nM. Further, the IC50 in assay [2] (read-out: IC50 HTRF) came to 29 nM.
The corresponding values for `COc1nccc2c([C@H](Nc3cc(Cl)c4ncc(C#N)c(NCC(C)(C)C(F)(F)F)c4c3)c3cn(C4(C(F)F)CC4)nn3)cccc12` [Example 934, (S)-8-chloro-6-(((1-(1-(difluoromethyl)cyclopropyl)-1H-1,2,3-triazol-4-yl)(1-methoxylsoquinolin-5-yl)methyl)amino)-4-((3,3,3-trifluoro-2,2-dimethylpropyl)amino)quinoline-3-carbonitrile] are 81 nM and 7 nM.
Consider `CC(C)(C)CNc1c(C#N)cnc2c(Cl)cc(N[C@@H](c3ccc4nccn4c3)c3cn(C4(C(F)(F)F)CC4)nn3)cc12` [Example 935, (S)-8-chloro-6-((imidazo[1,2-a]pyridin-6-yl(1-(1-(trifluoromethyl)cyclopropyl)-1H-1,2,3-triazol-4-yl)methyl)amino)-4-(neopentylamino)quinoline-3-carbonitrile], for which, in assay [1] (setting [4]), the EC50 worked out at 424 nM. This molecule registered an IC50 in assay [2] (IC50 HTRF) of 24 nM.
The corresponding values for `Cn1cccc([C@H](Nc2cc(Cl)c3ncc(C#N)c(NCC(C)(C)C)c3c2)c2cn(C3(C(F)(F)F)CC3)nn2)c1=O` [Example 936, (S)-8-chloro-6-(((1-methyl-2-oxo-1,2-dihydropyridin-3-yl)(1-(1-(trifluoromethyl)cyclopropyl)-1H-1,2,3-triazol-4-yl)methyl)amino)-4-(neopentylamino)quinoline-3-carbonitrile] are 287 nM and 18 nM.
Taken in the same sequence, the figures for `Cc1c([C@H](Nc2cc(Cl)c3ncc(C#N)c(NCC(C)(C)C)c3c2)c2cn(C3(C(F)(F)F)CC3)nn2)ccnc1Cl` [Example 938, (S)-8-chloro-6-(((2-chloro-3-methylpyridin-4-yl)(1-(1-(trifluoromethyl)cyclopropyl)-1H-1,2,3-triazol-4-yl)methyl)amino)-4-(neopentylamino)quinoline-3-carbonitrile] were 223 nM and 26 nM.
The corresponding values for `Cn1ccc2c([C@H](Nc3cc(Cl)c4ncc(C#N)c(NCC(C)(C)C)c4c3)c3cn(C45CCC(CC4)CC5)nn3)cccc2c1=O` [Example 939, (S)-6-(((1-(bicyclo[2.2.2]octan-1-yl)-1H-1,2,3-triazol-4-yl)(2-methyl-1-oxo-1,2-dihydroisoquinolin-5-yl)methyl)amino)-8-chloro-4-(neopentylamino)quinoline-3-carbonitrile] are 104 nM and 18 nM.
For `CC(C)(CNc1c(C#N)cnc2c(Cl)cc(N[C@H](c3cn(C4(C(F)F)CC4)nn3)c3cccc4ncccc34)cc12)C(F)(F)F` [Example 940, (S)-8-chloro-6-(((1-(1-(difluoromethyl)cyclopropyl)-1H-1,2,3-triazol-4-yl)(quinolin-5-yl)methyl)amino)-4-((3,3,3-trifluoro-2,2-dimethylpropyl)amino)quinoline-3-carbonitrile], the EC50 in assay [1] (setting [4]) turned out to be 86 nM. This molecule also showed an IC50 in assay [2] (IC50 HTRF) of 7 nM.
Taken in the same sequence, the figures for `COc1cc([C@H](Nc2cc(Cl)c3ncc(C#N)c(NCC(C)(C)C)c3c2)c2cn(C3(C(F)(F)F)CC3)nn2)ccn1` [Example 941, (S)-8-chloro-6-(((2-methoxypyridin-4-yl)(1-(1-(trifluoromethyl)cyclopropyl)-1H-1,2,3-triazol-4-yl)methyl)amino)-4-(neopentylamino)quinoline-3-carbonitrile] were 804 nM and 64 nM.
`Cc1nc(F)ccc1[C@H](Nc1cc(Cl)c2ncc(C#N)c(NCC(C)(C)C)c2c1)c1nnn(C2(C(F)F)CC2)c1I` [Example 945, (S)-8-chloro-6-(((1-(1-(difluoromethyl)cyclopropyl)-5-iodo-1H-1,2,3-triazol-4-yl)(6-fluoro-2-methylpyridin-3-yl)methyl)amino)-4-(neopentylamino)quinoline-3-carbonitrile]: the EC50 in assay [1] (setting [4]) turned out to be 142 nM. The IC50 in assay [2] (IC50 HTRF) came to 17 nM.
The corresponding values for `Cc1nc(F)ccc1[C@H](Nc1cc(Cl)c2ncc(C#N)c(NCC(C)(C)C)c2c1)c1nnn(C2CC2)c1C1CC1` [Example 946, (S)-8-chloro-6-(((1,5-dicyclopropyl-1H-1,2,3-triazol-4-yl)(6-fluoro-2-methylpyridin-3-yl)methyl)amino)-4-(neopentylamino)quinoline-3-carbonitrile] are 153 nM and 5 nM.
On to `Cc1nc(F)ccc1[C@H](Nc1cc(Cl)c2ncc(C#N)c(NCC(C)(C)C(F)(F)F)c2c1)c1nnn(C2(C(F)F)CC2)c1F` [Example 948, (S)-8-chloro-6-(((1-(1-(difluoromethyl)cyclopropyl)-5-fluoro-1H-1,2,3-triazol-4-yl)(6-fluoro-2-methylpyridin-3-yl)methyl)amino)-4-((3,3,3-trifluoro-2,2-dimethylpropyl)amino)-quinoline-3-carbonitrile], for which the EC50 in assay [1] (setting [4]) amounted to 99 nM. In assay [2] (IC50 HTRF), the IC50 worked out at 5 nM.
Taken in the same sequence, the figures for `Cc1nc(F)ccc1[C@H](Nc1cc(Cl)c2ncc(C#N)c(NCC(C)(C)C)c2c1)c1nnn(C2(C3CC3)CC2)c1F` [Example 949, (S)-6-(((1-([1,1′-bi(cyclopropan)]-1-yl)-5-fluoro-1H-1,2,3-triazol-4-yl)(6-fluoro-2-methylpyridin-3-yl)methyl)amino)-8-chloro-4-(neopentylamino)quinoline-3-carbonitrile] were 34 nM and 4 nM.
Taken in the same sequence, the figures for `CC[C@@H](Nc1c(C#N)cnc2c(Cl)cc(N[C@@H](c3ccc(F)nc3C)c3nnn(C4(C(F)(F)F)CC4)c3F)cc12)c1ccccc1` [Example 950, 8-chloro-6-(((S)-(5-fluoro-1-(1-(trifluoromethyl)cyclopropyl)-1H-1,2,3-triazol-4-yl)(6-fluoro-2-methylpyridin-3-yl)methyl)amino)-4-(((R)-1-phenylpropyl)amino)quinoline-3-carbonitrile] were 260 nM and 17 nM.
The corresponding values for `Cc1nc(F)ccc1[C@H](Nc1cc(Cl)c2ncc(C#N)c(NCC(C)(C)C)c2c1)c1nnn([C@@H](C)CF)c1F` [Example 952, 8-chloro-6-(((S)-(5-fluoro-1-((S)-1-fluoropropan-2-yl)-1H-1,2,3-triazol-4-yl)(6-fluoro-2-methylpyridin-3-yl)methyl)amino)-4-(neopentylamino)quinoline-3-carbonitrile] are 36 nM and 4 nM.
As for `Cc1nc(F)ccc1[C@H](Nc1cc(Cl)c2ncc(C#N)c(Nc3cnc(F)c(F)c3)c2c1)c1nnn(C2(C(F)F)CC2)c1F` [Example 953, (S)-8-chloro-6-(((1-(1-(difluoromethyl)cyclopropyl)-5-fluoro-1H-1,2,3-triazol-4-yl)(6-fluoro-2-methylpyridin-3-yl)methyl)amino)-4-((5,6-difluoropyridin-3-yl)amino)quinoline-3-carbonitrile], the EC50 in assay [1] (setting [4]) came out at 353 nM. Also, in assay [2] (IC50 HTRF), the midpoint of inhibition, the IC50, lay at 36 nM.

These data come from patent publication US11066414B2, “Cot modulators and methods of use thereof” (Gilead Sciences, Inc., priority 2015, dated 2021).
